Patent US12325685B2, “RXR agonist salt form, polymorphs thereof, and uses thereof” (Io Therapeutics, Inc., priority 2022, dated 2025)
Values after ≈ are worked out from the molar mass of the structure shown.

What was measured:
[1] = Approximate (thermodynamic) solubility in solvents at room temperature; format: physicochemical; details: for solubility: organic solvent or mixture, thermodynamic from solid
[2] = Kinetic solubility at 37° C. in water and three biorelevant media; format: physicochemical
Description: Example 7: Kinetic Solubility. Kinetic solubility measurements were conducted on Compound 1 (a free acid) and Form A Tris salt of Compound 1 at 37° C. in water and three biorelevant media: synthetic gastric fluid; fed synthetic small intestinal fluid; and fasting synthetic small intestinal fluid.

[3] = Fasting Synthetic Small Intestinal Fluid, 37° C., 1 Hr
[4] = Fasting Synthetic Small Intestinal Fluid, 37° C., 4 Hrs
[5] = Fasting Synthetic Small Intestinal Fluid, 37° C., 24 Hrs
[6] = Fed Synthetic Small Intestinal Fluid, 37° C., 1 Hr
[7] = Fed Synthetic Small Intestinal Fluid, 37° C., 4 Hrs
[8] = Fed Synthetic Small Intestinal Fluid, 37° C., 24 Hrs
[9] = Synthetic Gastric Fluid, 37° C., 1 Hr
[10] = Synthetic Gastric Fluid, 37° C., 4 Hrs
[11] = Synthetic Gastric Fluid, 37° C., 24 Hrs

Row | Observed kinetic aqueous solubility S [2, 3] [µg/mL] | pH [2, 3] | Observed kinetic aqueous solubility S [2, 4] [µg/mL] | pH [2, 4] | Observed kinetic aqueous solubility S [2, 5] [µg/mL] | pH [2, 5] | Observed kinetic aqueous solubility S [2, 6] [µg/mL] | pH [2, 6] | Observed kinetic aqueous solubility S [2, 7] [µg/mL] | pH [2, 7] | pH [2, 8] | pH [2, 9] | pH [2, 10] | pH [2, 11] | Observed kinetic aqueous solubility S ([2]; Water, 37° C., 1 Hr) [µg/mL] | pH ([2]; Water, 37° C., 1 Hr) | Observed kinetic aqueous solubility S ([2]; Water, 37° C., 4 Hrs) [µg/mL] | pH ([2]; Water, 37° C., 4 Hrs) | Observed kinetic aqueous solubility S ([2]; Water, 37° C., 24 Hrs) [µg/mL] | pH ([2]; Water, 37° C., 24 Hrs) | SMILES | also measured
1 | 740 | 6.93 | 830 | 7.83 | 860 | 9.37 | 2540 | 5.91 | 410 | 6.84 | 7.33 | 1.76 | 1.96 | 2.12 | 290 | 2.68 | 170 | 3.21 | 140 | 9.3 | CC(/C=C/[C@@H]1C[C@]1(C)c1ccc2c(c1)C(C)(C)CCC2(C)C)=C\C(=O)O [Tris Form A] | Approximate Solubility ([1]; 2-Butanol, listed as TRIS salt Form A): >15000 µg/mL; Approximate Solubility ([1]; Ethanol, listed as TRIS salt Form A): >40000 µg/mL; Approximate Solubility ([1]; Isopropanol, listed as TRIS salt Form A): 8830 to 10600 µg/mL; Approximate Solubility ([1]; Methanol, listed as TRIS salt Form A): >88000 µg/mL; Approximate Solubility ([1]; Water, listed as TRIS salt Form A): 290 µg/mL; solubility kinetic at 24 h ([2]; fed synthetic small intestinal fluid, 37 °C, fessif, thermodynamic from solid, Fed Synthetic Small Intestinal Fluid, 37° C., 24 Hrs, read-out: Observed kinetic aqueous solubility S): 340 µg/mL (≈ 0.964 mM); kinetic aqueous solubility compared to Compound 1 ([2]; relative to free acid, see Table 1): approximately an order of magnitude, or more; kinetic solubility in synthetic gastric fluid (in words) ([2]; synthetic gastric fluid): poor or undetectable
2 | 50 | 6.48 | 60 | 6.88 | 40 | 7.50 | 100 | 5.09 | 100 | 5.17 | 5.21 | 1.67 | 1.78 | 1.92 | 30 | 7.78 | 30 | 7.83 | 10 | 8.33 | CC(/C=C/[C@@H]1C[C@]1(C)c1ccc2c(c1)C(C)(C)CCC2(C)C)=C\C(=O)O [Compound 1, (2E,4E)-3-methyl-5-((1 S,2S)-2-methyl-2-(5,5,8,8-tetramethyl-5,6,7,8-tetrahydronaphthalen-2-yl)cyclopropyl)penta-2,4-dienoic acid] | Approximate Solubility ([1]; 2-Butanol, listed as Compound 1 (Free Acid)): 108900 to 140000 µg/mL; Approximate Solubility ([1]; Isopropanol, listed as Compound 1 (Free Acid)): 71800 to 87800 µg/mL; Approximate Solubility ([1]; Water, listed as Compound 1 (Free Acid)): 30 µg/mL; solubility ([1]; ethanol): 74900 to 91500 µg/mL (≈ 212 to 260 mM); solubility ([1]; methanol): 57400 to 73100 µg/mL (≈ 163 to 207 mM); Observed kinetic aqueous solubility S [2, 8]: 440 µg/mL; kinetic solubility in synthetic gastric fluid (in words) ([2]; synthetic gastric fluid): poor or undetectable; solubility kinetic at 4 h ([2]; synthetic gastric fluid, 37 °C, simulated gastric fluid, thermodynamic from solid, Synthetic Gastric Fluid, 37° C., 4 Hrs, ND = No Detectable signal by HPLC, read-out: Observed kinetic aqueous solubility S): 20 µg/mL (≈ 0.0567 mM)
